{
  "source": "patent US20070021434A1",
  "about": "“NON-NUCLEOSIDE ANTI-HEPACIVIRUS AGENTS AND USES THEREOF” (Migenix Inc., priority 2005, published 2007)",
  "note": "Peptide text beside a SMILES is read from it. * marks the point of attachment. Fmoc = O=C(OCC1c2ccccc2-c2ccccc21)*; Boc = CC(C)(C)OC(=O)*",
  "data": [
    {"target": "HCV RdRp (NS5B) (UniProt P26663)", "sequence (P26663 whole entry, looked up)": "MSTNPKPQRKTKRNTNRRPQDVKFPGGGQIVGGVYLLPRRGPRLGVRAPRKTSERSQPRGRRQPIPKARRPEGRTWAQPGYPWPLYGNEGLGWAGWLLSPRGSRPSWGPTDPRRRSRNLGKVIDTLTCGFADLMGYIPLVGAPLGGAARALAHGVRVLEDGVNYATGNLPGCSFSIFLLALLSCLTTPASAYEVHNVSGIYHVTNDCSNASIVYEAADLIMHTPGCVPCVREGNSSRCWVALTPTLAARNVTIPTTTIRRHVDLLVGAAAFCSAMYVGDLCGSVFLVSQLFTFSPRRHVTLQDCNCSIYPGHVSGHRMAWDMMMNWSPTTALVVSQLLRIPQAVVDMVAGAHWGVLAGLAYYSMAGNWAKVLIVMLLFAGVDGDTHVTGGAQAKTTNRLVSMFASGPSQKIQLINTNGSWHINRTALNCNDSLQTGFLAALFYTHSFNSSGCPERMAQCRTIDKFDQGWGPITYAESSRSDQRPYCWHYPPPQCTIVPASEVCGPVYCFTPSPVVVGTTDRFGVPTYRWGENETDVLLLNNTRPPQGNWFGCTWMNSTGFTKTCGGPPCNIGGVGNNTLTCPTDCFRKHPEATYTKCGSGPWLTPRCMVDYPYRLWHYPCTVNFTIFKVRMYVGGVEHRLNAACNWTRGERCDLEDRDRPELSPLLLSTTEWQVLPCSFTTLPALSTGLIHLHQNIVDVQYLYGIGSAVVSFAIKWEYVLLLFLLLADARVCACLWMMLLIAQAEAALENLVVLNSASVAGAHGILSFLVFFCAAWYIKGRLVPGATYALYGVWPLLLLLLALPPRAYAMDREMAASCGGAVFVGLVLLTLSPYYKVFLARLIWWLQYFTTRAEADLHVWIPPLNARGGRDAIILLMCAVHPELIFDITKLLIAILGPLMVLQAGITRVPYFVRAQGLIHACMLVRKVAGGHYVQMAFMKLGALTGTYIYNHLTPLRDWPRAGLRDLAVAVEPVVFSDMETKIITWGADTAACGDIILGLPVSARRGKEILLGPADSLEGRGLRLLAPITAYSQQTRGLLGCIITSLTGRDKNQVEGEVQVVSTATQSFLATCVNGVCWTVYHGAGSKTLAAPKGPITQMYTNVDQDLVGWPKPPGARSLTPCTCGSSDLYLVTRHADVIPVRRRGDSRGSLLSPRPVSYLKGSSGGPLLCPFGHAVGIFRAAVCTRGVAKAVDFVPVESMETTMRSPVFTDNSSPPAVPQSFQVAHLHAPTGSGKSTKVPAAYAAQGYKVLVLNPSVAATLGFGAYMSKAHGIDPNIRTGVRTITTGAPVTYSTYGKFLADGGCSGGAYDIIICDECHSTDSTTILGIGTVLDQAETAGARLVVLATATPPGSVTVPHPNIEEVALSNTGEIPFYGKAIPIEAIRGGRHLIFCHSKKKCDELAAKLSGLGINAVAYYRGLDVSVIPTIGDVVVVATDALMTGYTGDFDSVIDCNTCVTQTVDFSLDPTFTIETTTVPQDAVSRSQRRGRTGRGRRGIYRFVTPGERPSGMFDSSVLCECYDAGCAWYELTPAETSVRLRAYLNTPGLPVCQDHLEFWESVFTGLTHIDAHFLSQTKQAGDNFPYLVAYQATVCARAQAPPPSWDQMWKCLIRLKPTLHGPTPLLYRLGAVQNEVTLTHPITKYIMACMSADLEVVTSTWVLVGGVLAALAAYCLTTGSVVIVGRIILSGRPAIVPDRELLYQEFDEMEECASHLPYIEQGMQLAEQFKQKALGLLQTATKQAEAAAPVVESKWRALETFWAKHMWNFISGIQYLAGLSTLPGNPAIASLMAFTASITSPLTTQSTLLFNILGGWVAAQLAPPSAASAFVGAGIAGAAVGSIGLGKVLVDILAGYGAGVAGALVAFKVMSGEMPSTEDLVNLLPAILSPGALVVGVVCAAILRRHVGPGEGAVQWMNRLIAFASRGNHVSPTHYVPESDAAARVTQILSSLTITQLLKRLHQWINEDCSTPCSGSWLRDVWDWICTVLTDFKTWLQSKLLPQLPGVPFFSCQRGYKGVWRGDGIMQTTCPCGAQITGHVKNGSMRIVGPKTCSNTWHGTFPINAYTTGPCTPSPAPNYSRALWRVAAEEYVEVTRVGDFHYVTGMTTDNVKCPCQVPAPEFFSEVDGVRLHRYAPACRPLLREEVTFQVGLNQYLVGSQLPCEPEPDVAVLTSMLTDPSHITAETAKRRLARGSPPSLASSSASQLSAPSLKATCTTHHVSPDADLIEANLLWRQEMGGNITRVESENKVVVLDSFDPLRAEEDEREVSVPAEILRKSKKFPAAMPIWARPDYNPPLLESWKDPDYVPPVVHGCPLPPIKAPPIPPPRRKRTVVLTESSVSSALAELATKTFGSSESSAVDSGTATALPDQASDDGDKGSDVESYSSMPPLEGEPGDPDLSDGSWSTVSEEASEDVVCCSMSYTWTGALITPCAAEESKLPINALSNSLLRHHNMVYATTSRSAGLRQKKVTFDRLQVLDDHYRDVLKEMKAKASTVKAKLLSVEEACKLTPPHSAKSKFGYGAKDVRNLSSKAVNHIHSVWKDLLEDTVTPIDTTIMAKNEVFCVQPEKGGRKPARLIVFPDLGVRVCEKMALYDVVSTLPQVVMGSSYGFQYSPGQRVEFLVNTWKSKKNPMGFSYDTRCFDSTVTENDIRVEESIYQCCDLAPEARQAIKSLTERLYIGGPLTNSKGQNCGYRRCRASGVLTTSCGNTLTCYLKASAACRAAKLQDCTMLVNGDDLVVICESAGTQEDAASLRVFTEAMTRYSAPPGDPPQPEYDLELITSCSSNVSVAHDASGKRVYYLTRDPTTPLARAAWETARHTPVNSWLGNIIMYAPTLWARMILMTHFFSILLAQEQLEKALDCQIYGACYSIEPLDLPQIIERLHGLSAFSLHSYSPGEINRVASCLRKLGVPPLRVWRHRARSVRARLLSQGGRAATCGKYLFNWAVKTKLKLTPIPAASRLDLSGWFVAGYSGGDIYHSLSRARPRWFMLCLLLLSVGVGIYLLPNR", "format": "biochemical, hepatitis C virus", "units": {"IC50": "µM"}, "values": [
      {"smiles": "Cc1ccc(NC(=O)[C@H](CCCCN)NC(=O)CNCCc2ccccc2)cc1", "note": "[Compound 334, (S)-6-AMINO-2-(2-PHENETHYLAMINO-ACETYLAMINO)-HEXANOIC ACID P-TOLYLAMIDE]", "IC50": "> 50"},
      {"smiles": "Cc1cc2cc(NC(=O)[C@H](Cc3ccc(CN)cc3)NC(=O)Nc3ccc4c(c3)Cc3ccccc3-4)ccc2[nH]1", "note": "[Compound 235, (S)-3-(4-AMINOMETHYL-PHENYL)-2-[3-(9H-FLUOREN-2-YL)-UREIDO]-N-(2-METHYL-1H-INDOL-5-YL)-PROPIONAMIDE]", "IC50": "< 10"},
      {"smiles": "Cc1ccc(NC(=O)C(CCCCN)NC(=O)NCc2ccccc2)cc1", "note": "[Compound 133, (S)-6-AMINO-2-(3-BENZYL-UREIDO)-HEXANOIC ACID P-TOLYLAMIDE]", "IC50": "> 50"},
      {"smiles": "Cc1ccc(NC(=O)C(CCCCN)NC(=O)OCC2c3ccccc3-c3ccccc32)cc1", "note": "[Compound 36, (R)-(5-AMINO-1-P-TOLYLCARBAMOYL-PENTYL)-CARBAMIC ACID 9H-FLUOREN-9-YLMETHYL ESTER]", "IC50": "10 to 50"},
      {"smiles": "CNc1ccc(NC(=O)[C@H](CCCCN)NC(=O)OCC2c3ccccc3-c3ccccc32)cc1", "note": "[Compound 209, (S)-[5-AMINO-1-(4-METHYLAMINO-PHENYLCARBAMOYL)-PENTYL]-CARBAMIC ACID 9H-FLUOREN-9-YLMETHYL ESTER]", "IC50": "10 to 50"},
      {"smiles": "Cc1ccc(NC(=O)C(CCCCN)NC(=O)CC2c3ccccc3-c3ccccc32)cc1", "note": "[Compound 53, (S)-6-AMINO-2-(2-9H-FLUOREN-9-YL-ACETYLAMINO)-HEXANOIC ACID P-TOLYLAMIDE]", "IC50": "> 50"},
      {"smiles": "Cc1ccc(NC(=O)C(CCCCN)NC(=O)C(N)Cc2cccc3ccccc23)cc1", "note": "[Compound 60, (S,S)-6-AMINO-2-(2-AMINO-3-NAPHTHALEN-1-YL-PROPIONYLAMINO)-HEXANOIC ACID P-TOLYLAMIDE]", "IC50": "> 50"},
      {"smiles": "Cc1ccc(NC(=O)[C@H](CCCCN)NC(=O)CNc2ccc(F)cc2)cc1", "note": "[Compound 361, (S)-6-AMINO-2-[2-(4-FLUORO-PHENYLAMINO)-ACETYLAMINO]-HEXANOIC ACID P-TOLYLAMIDE]", "IC50": "> 50"},
      {"smiles": "Cc1ccc(NC(=O)C2CCCN2C(=O)OCC2c3ccccc3-c3ccccc32)cc1", "note": "[Compound 85, (S)-2-P-TOLYLCARBAMOYL-PYRROLIDINE-1-CARBOXYLIC ACID 9H-FLUOREN-9-YLMETHYL ESTER]", "IC50": "> 50"},
      {"smiles": "NCCCCC[C@H](NC(=O)OCC1c2ccccc2-c2ccccc21)C(=O)Nc1ccc(C2CCCCC2)cc1", "note": "[Compound 116, (S)-[6-AMINO-1-(4-CYCLOHEXYL-PHENYLCARBAMOYL)-HEXYL]-CARBAMIC ACID 9H-FLUOREN-9-YLMETHYL ESTER]", "IC50": "< 10"},
      {"smiles": "COc1cc2ccccc2cc1C(=O)NC(CCCCN)C(=O)Nc1ccc(C)cc1", "note": "[Compound 65, (S)-3-METHOXY-NAPHTHALENE-2-CARBOXYLIC ACID (5-AMINO-1-P-TOLYLCARBAMOYL-PENTYL)-AMIDE]", "IC50": "> 50"},
      {"smiles": "Cc1ccc(NC(=O)C(Cc2c[nH]c3ccccc23)NC(=O)OCC2c3ccccc3-c3ccccc32)cc1", "note": "[Compound 379, (R)-[2-(1H-INDOL-3-YL)-1-P-TOLYLCARBAMOYL-ETHYL]-CARBAMIC ACID 9H-FLUOREN-9-YLMETHYL ESTER]", "IC50": "> 50"},
      {"smiles": "C[C@H](N)C(=O)Nc1ccc(CN(C(=O)c2ccco2)C2CCCCC2)cc1", "note": "[Compound 12, (S)-FURAN-2-CARBOXYLIC ACID [4-(2-AMINO-PROPIONYLAMINO)-BENZYL]-CYCLOHEXYL-AMIDE]", "IC50": "> 50"},
      {"smiles": "Cc1ccc(NC(=O)[C@H](CCCCN)NC(=O)CNCc2cccc(F)c2)cc1", "note": "[Compound 345, (S)-6-AMINO-2-[2-(3-FLUORO-BENZYLAMINO)-ACETYLAMINO]-HEXANOIC ACID P-TOLYLAMIDE]", "IC50": "> 50"},
      {"smiles": "COC(=O)[C@H](Cc1c[nH]c2ccccc12)NC(=O)[C@H](CCCCNC(=O)OC(C)(C)C)NC(=O)OCC1c2ccccc2-c2ccccc21", "note": "[Compound 30, (S)-2-[6-TERT-BUTOXYCARBONYLAMINO-2-(S)-((9H-FLUOREN-9-YLMETHOXYCARBONYL)AMINO)-HEXANOYL-AMINO]-3-(1H-INDOL-3-YL)-PROPIONIC ACID METHYL ESTER] (Fmoc-Lys(Boc)-Trp-OMe)", "IC50": "> 50"},
      {"smiles": "Cc1ccc(NC(=O)C(CCCCN)NC(=O)OCc2ccccc2)cc1", "note": "[Compound 403, (S)-(5-AMINO-1-P-TOLYLCARBAMOYL-PENTYL)-CARBAMIC ACID BENZYL ESTER]", "IC50": "> 50"},
      {"smiles": "Cc1cc2cc(NC(=O)C(CCCCN)NC(=O)OCC3c4ccccc4-c4ccccc43)ccc2[nH]1", "note": "[Compound 38, (S)-[5-AMINO-1-(2-METHYL-1H-INDOL-5-YLCARBAMOYL)-PENTYL]-CARBAMIC ACID 9H-FLUOREN-9-YL METHYL ESTER]", "IC50": "10 to 50"},
      {"smiles": "Cc1ccc(NC(=O)[C@H](CCCCN)NC(=O)Nc2cccc(Oc3ccccc3)c2)cc1", "note": "[Compound 98, (S)-6-AMINO-2-[3-(3-PHENOXY-PHENYL)-UREIDO]-HEXANOIC ACID P-TOLYLAMIDE]", "IC50": "> 50"},
      {"smiles": "Cc1cc2cc(NC(=O)[C@H](CCCCNC(=O)CN)NC(=O)Nc3ccc(OCc4ccccc4)cc3)ccc2[nH]1", "note": "[Compound 239, (S)-6-(2-AMINO-ACETYLAMINO)-2-[3-(4-BENZYLOXY-PHENYL)-UREIDO]-HEXANOIC ACID (2-METHYL-1H-INDOL-5-YL)-AMIDE]", "IC50": "< 10"},
      {"smiles": "Cc1ccc(NC(=O)C(CCCCN)NC(=O)Nc2cccc3ccccc23)cc1", "note": "[Compound 71, (S)-6-AMINO-2-(3-NAPHTHALEN-1-YL-UREIDO)-HEXANOIC ACID P-TOLYLAMIDE]", "IC50": "> 50"},
      {"smiles": "Cc1cc2cc(NC(=O)[C@H](Cc3ccc(CN)cc3)NC(=O)Nc3ccc(OCc4ccccc4)cc3)ccc2[nH]1", "note": "[Compound 227, (S)-3-(4-AMINOMETHYL-PHENYL)-2-[3-(4-BENZYLOXY-PHENYL)-UREIDO]-N-(2-METHYL-1H-INDOL-5-YL)-PROPIONAMIDE]", "IC50": "< 10"},
      {"smiles": "Cc1ccc(NC(=O)[C@H](CCCCN)NC(=O)Nc2ccc(OCc3ccc(F)cc3F)cc2)cc1", "note": "[Compound 285, (S)-6-AMINO-2-{3-[4-(2,4-DIFLUORO-BENZYLOXY)-PHENYL]-UREIDO}-HEXANOIC ACID P-TOLYLAMIDE]", "IC50": "10 to 50"},
      {"smiles": "NCCCC[C@H](NC(=O)Nc1ccc(OCc2ccccc2)cc1)C(=O)N1CCCCC1", "note": "[Compound 290, (S)-1-[5-AMINO-1-(PIPERIDINE-1-CARBONYL)-PENTYL]-3-(4-BENZYLOXY-PHENYL)-UREA]", "IC50": "> 50"},
      {"smiles": "NCc1ccc(CNC(=O)[C@@H](NC(=O)OCC2c3ccccc3-c3ccccc32)c2ccccc2)cc1", "note": "[Compound 314, (S)-[(4-AMINOMETHYL-BENZYLCARBAMOYL)-PHENYL-METHYL]-CARBAMIC ACID 9H-FLUOREN-9-YLMETHYL ESTER]", "IC50": "10 to 50"},
      {"smiles": "Cc1ccc(NC(=O)C(CCCCN)NC(=O)NC(C)c2cccc3ccccc23)cc1", "note": "[Compound 97, (S,S)-6-AMINO-2-[3-(1-NAPHTHALEN-1-YL-ETHYL)-UREIDO]-HEXANOIC ACID P-TOLYLAMIDE]", "IC50": "> 50"},
      {"smiles": "Cc1ccc(NC(=O)C(CCCC[N+](C)(C)C)NC(=O)OCC2c3ccccc3-c3ccccc32)cc1", "note": "(stereo not drawn) [Compound 110]", "IC50": "> 50"},
      {"smiles": "Cc1ccc(NC(=O)C(CCCCN)NC(=O)Cc2ccc3ccccc3c2)cc1", "note": "[Compound 48, (S)-6-AMINO-2-(2-NAPHTHALEN-2-YL-ACETYLAMINO)-HEXANOIC ACID P-TOLYLAMIDE]", "IC50": "> 50"},
      {"smiles": "NCCCCC(NC(=O)OCC1c2ccccc2-c2ccccc21)C(=O)NCc1ccccc1", "note": "(stereo in doubt) [Compound 21, (S)-(5-AMINO-1-BENZYLCARBAMOYL-PENTYL)-CARBAMIC ACID 9H-FLUOREN-9-YLMETHYL ESTER]", "IC50": "> 50"},
      {"smiles": "NCC(=O)Nc1ccccc1NC(=O)CNC(=O)OCC1c2ccccc2-c2ccccc21", "note": "[Compound 311, {[2-(2-AMINO-ACETYLAMINO)-PHENYLCARBAMOYL]-METHYL}-CARBAMIC ACID 9H-FLUOREN-9-YLMETHYL ESTER]", "IC50": "> 50"},
      {"smiles": "Cc1ccc(NC(=O)[C@@H](CCCCN)NC(=O)NCc2ccc(Cl)cc2)cc1", "note": "[Compound 169, (R)-6-AMINO-2-[3-(4-CHLORO-BENZYL)-UREIDO]-HEXANOIC ACID P-TOLYLAMIDE]", "IC50": "> 50"},
      {"smiles": "Cc1ccc(NC(=O)C(CCCCN)NC(=O)CNc2cccc(C(F)(F)F)c2)cc1", "note": "[Compound 364, (S)-6-AMINO-2-[2-(3-TRIFLUOROMETHYL-PHENYLAMINO)-ACETYLAMINO]-HEXANOIC ACID P-TOLYLAMIDE]", "IC50": "> 50"},
      {"smiles": "Cc1ccc(NC(=O)CN(CCCCN)C(=O)OCC2c3ccccc3-c3ccccc32)cc1", "note": "[Compound 293, (4-AMINO-BUTYL)-(P-TOLYLCARBAMOYL-METHYL)-CARBAMIC ACID 9H-FLUOREN-9-YLMETHYL ESTER]", "IC50": "< 10"},
      {"smiles": "Cc1ccc(NC(=O)C(CCCCN)NC(=O)c2ccc(F)c3ccccc23)cc1", "note": "[Compound 64, (S)-4-FLUORO-NAPHTHALENE-1-CARBOXYLIC ACID (5-AMINO-1-P-TOLYLCARBAMOYL-PENTYL)-AMIDE]", "IC50": "> 50"},
      {"smiles": "Cc1ccc(NC(=O)C(Cc2cnc[nH]2)NC(=O)OCC2c3ccccc3-c3ccccc32)cc1", "note": "[Compound 384, (R)-[2-(3H-IMIDAZOL-4-YL)-1-P-TOLYLCARBAMOYL-ETHYL]-CARBAMIC ACID 9H-FLUOREN-9-YLMETHYL ESTER]", "IC50": "> 50"},
      {"smiles": "Cc1ccc(NC(=O)[C@H](CCCCN)NC(=O)Nc2ccc(OCc3ccc(Cl)cc3)cc2)cc1", "note": "[Compound 273, (S)-6-AMINO-2-{3-[4-(4-CHLORO-BENZYLOXY)-PHENYL]-UREIDO}-HEXANOIC ACID P-TOLYLAMIDE]", "IC50": "< 10"},
      {"smiles": "Cc1ccc(NC(=O)[C@H](CCCCN)NC(=O)Nc2ccc(OCc3ccccc3)c(Cl)c2)cc1", "note": "[Compound 253, (S)-6-AMINO-2-[3-(4-BENZYLOXY-3-CHLORO-PHENYL)-UREIDO]-HEXANOIC ACID P-TOLYLAMIDE]", "IC50": "10 to 50"},
      {"smiles": "Cc1ccc(NC(=O)[C@H](CCCCN)NC(=O)CNc2cccc(F)c2)cc1", "note": "[Compound 360, (S)-6-AMINO-2-[2-(3-FLUORO-PHENYLAMINO)-ACETYLAMINO]-HEXANOIC ACID P-TOLYLAMIDE]", "IC50": "10 to 50"},
      {"smiles": "O=C(N[C@@H](Cc1ccccc1)C(=O)Nc1ccc(CN(C(=O)c2ccco2)C2CCCCC2)cc1)OCC1c2ccccc2-c2ccccc21", "note": "[Compound 29, (S)-[1-(4-{[CYCLOHEXYL-(FURAN-2-CARBONYL)-AMINO]-METHYL}-PHENYL CARBAMOYL)-2-PHENYL-ETHYL]-CARBAMIC ACID 9H-FLUOREN-9-YLMETHYL ESTER]", "IC50": "> 50"},
      {"smiles": "CC(C)(C)OC(=O)NCC(=O)NCc1ccccc1NC(=O)CNC(=O)OCC1c2ccccc2-c2ccccc21", "note": "[Compound 325, ({2-[2-(9H-FLUOREN-9-YLMETHOXYCARBONYLAMINO)-ACETYLAMINO]-BENZYLCARBAMOYL}-METHYL)-CARBAMIC ACID TERT-BUTYL ESTER]", "IC50": "> 50"}
    ]}
  ]
}
